Legend:
Assay in all cases: relative viability (nuclei count vs DMSO), 5 days (fraction); higher = more cells survive
AZ628 + Vorinostat = compound: CC1=C(C=C(C=C1)NC(=O)C2=CC(=CC=C2)C(C)(C)C#N)NC3=CC4=C(C=C3)N=CN(C4=O)C [AZ628] + O=C(CCCCCCC(=O)Nc1ccccc1)NO [Vorinostat] (partner 1 µM)
Outline: (§1)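 After 5 days of treatment, lung cancer cells in 1536-well plates were fixed and stained in a single step (final 0.05% Triton X-100, 1% formaldehyde, 1 ug/ml Hoechst) and their nuclei counted on 4× images. Treatment had been applied by pin tool the day after seeding as one drug alone or as a fixed anchor-drug dose with five library-drug doses (not always all listed) in √10 steps. Relative viability is the nuclei count of treated wells divided by that of vehicle wells, and values are medians of duplicate plates.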

[1] = compound: C[As](C)SC[C@H](NC(=O)CC[C@H](N)C(=O)O)C(=O)NCC(=O)O [Darinaparsin] + CC(C)C[C@H](NC(=O)[C@H](Cc1ccccc1)NC(=O)c1cnccn1)B(O)O [Bortezomib] (partner 0.002 µM)
Outline: as §1

AZ628 + Decitabine = compound: CC1=C(C=C(C=C1)NC(=O)C2=CC(=CC=C2)C(C)(C)C#N)NC3=CC4=C(C=C3)N=CN(C4=O)C [AZ628] + Nc1ncn([C@H]2C[C@H](O)[C@@H](CO)O2)c(=O)n1 [Decitabine] (partner 2 µM)
Outline: as §1

QS11 + Luminespib = compound: C1CC2=C(C1)C=C(C=C2)OC3=NC(=C4C(=N3)N(C=N4)CC5=CC=C(C=C5)C6=CC=CC=C6)N[C@@H](CC7=CC=CC=C7)CO [QS11] + CCNC(=O)c1noc(-c2cc(C(C)C)c(O)cc2O)c1-c1ccc(CN2CCOCC2)cc1 [Luminespib] (partner 0.01 µM)
Outline: as §1

Row | Cell Line | relative viability (AZ628 + Vorinostat; first compound 0.08 µM) | relative viability (AZ628 + Vorinostat; first compound 0.253 µM) | relative viability (AZ628 + Vorinostat; first compound 0.8 µM) | relative viability (AZ628 + Vorinostat; first compound 2.53 µM) | relative viability (AZ628 + Vorinostat; first compound 8 µM) | relative viability ([1]; first compound 0.08 µM) | relative viability ([1]; first compound 0.8 µM) | relative viability ([1]; first compound 2.53 µM) | relative viability ([1]; first compound 8 µM) | relative viability (AZ628 + Decitabine; first compound 0.08 µM) | relative viability (AZ628 + Decitabine; first compound 0.253 µM) | relative viability (AZ628 + Decitabine; first compound 0.8 µM) | relative viability (AZ628 + Decitabine; first compound 2.53 µM) | relative viability (AZ628 + Decitabine; first compound 8 µM) | relative viability (QS11 + Luminespib; first compound 0.08 µM) | relative viability (QS11 + Luminespib; first compound 0.253 µM) | relative viability (QS11 + Luminespib; first compound 0.8 µM) | relative viability (QS11 + Luminespib; first compound 2.53 µM) | relative viability (QS11 + Luminespib; first compound 8 µM)
1 | HCC-78 | 0.523 | 0.439 | 0.465 | 0.565 | 0.457 | 0.464 | 0.59 | 0.482 | 0.55 | 0.734 | 0.629 | 0.771 | 0.787 | 0.848 |  |  |  |  | 
2 | SW 1573 | 1.01 | 0.641 | 0.592 | 0.575 | 0.508 | 1.02 | 1.01 | 1.05 | 1.29 | 0.503 | 0.445 | 0.435 | 0.408 | 0.374 | 0.239 | 0.239 | 0.198 | 0.21 | 0.235
3 | NCI-H358 | 0.762 | 0.424 | 0.386 | 0.336 | 0.262 |  |  |  |  | 0.233 | 0.192 | 0.184 | 0.195 | 0.158 | 0.435 | 0.457 | 0.479 | 0.414 | 0.444
4 | ChaGo-K-1 | 0.773 | 0.75 | 0.753 | 0.754 | 0.743 | 1.18 | 1.07 | 1.01 | 0.767 | 0.548 | 0.504 | 0.558 | 0.524 | 0.481 | 0.506 | 0.609 | 0.679 | 0.664 | 0.655
5 | 201T | 1.06 | 1.02 | 1.08 | 1.04 | 1.08 | 1.1 | 1.09 | 1.06 | 1.15 | 0.869 | 0.859 | 0.874 | 0.911 | 0.858 | 1.08 | 1.12 | 0.815 | 1.01 | 0.692
6 | HCC-44 | 1.16 | 1.17 | 1.15 | 1.02 | 0.491 | 1.04 | 0.861 | 0.801 | 1.04 | 0.97 | 0.999 | 1 | 0.953 | 0.947 | 1.08 | 1.18 | 0.805 | 0.937 | 1.24
7 | NCI-H2342 | 0.928 | 0.692 | 0.81 | 0.753 | 0.825 |  |  |  |  | 0.837 | 0.651 | 0.779 | 0.726 | 0.747 | 0.787 | 0.754 | 0.721 | 0.697 | 0.746
8 | NCI-H1395 | 0.936 | 0.61 | 0.665 | 0.62 | 0.607 |  |  |  |  | 0.678 | 0.698 | 0.667 | 0.647 | 0.788 | 0.795 | 0.549 | 0.762 | 0.843 | 0.819
9 | NCI-H2170 | 0.804 | 0.833 | 0.786 | 0.837 | 0.905 |  |  |  |  | 0.448 | 0.483 | 0.446 | 0.439 | 0.456 | 0.603 | 0.646 | 0.766 | 0.806 | 0.665
10 | NCI-H522 | 0.924 | 0.891 | 0.95 | 0.82 | 0.695 |  |  |  |  | 0.62 | 0.66 | 0.686 | 0.78 | 0.522 | 1.01 | 1.35 | 0.945 | 0.98 | 1.17
11 | NCI-H1648 | 0.544 | 0.372 | 0.333 | 0.375 | 0.323 |  |  |  |  | 0.72 | 0.563 | 0.453 | 0.453 | 0.489 |  |  |  |  | 
12 | NCI-H1563 |  |  |  |  |  | 0.831 | 0.862 | 0.828 | 0.93 |  |  |  |  |  | 0.59 | 0.541 | 0.513 | 0.532 | 0.452
13 | NCI-H1703 |  |  |  |  |  | 0.317 | 0.338 | 0.39 | 0.33 |  |  |  |  |  |  |  |  |  | 
14 | NCI-H1793 | 0.969 | 0.632 | 0.835 | 0.602 | 0.484 |  |  |  |  | 0.616 | 0.442 | 0.458 | 0.441 | 0.184 | 0.137 | 0.177 | 0.171 | 0.189 | 0.158
15 | Calu-6 |  |  |  |  |  | 1.04 | 0.968 | 0.949 | 0.945 |  |  |  |  |  |  |  |  |  | 
16 | HCC-366 | 0.404 | 0.39 | 0.399 | 0.255 | 0.396 | 1.71 | 1.11 | 0.768 | 1.94 | 0.345 | 0.313 | 0.269 | 0.292 | 0.182 |  |  |  |  | 
17 | NCI-H1944 | 0.613 | 0.547 | 0.508 | 0.468 | 0.444 |  |  |  |  | 0.426 | 0.434 | 0.414 | 0.416 | 0.282 | 0.702 | 0.864 |  | 0.557 | 0.543
18 | NCI-H1623 |  |  |  |  |  |  |  |  |  |  |  |  |  |  | 0.529 | 0.705 | 0.486 | 0.479 | 0.503
19 | A549 |  |  |  |  |  |  |  |  |  | 0.262 | 0.24 | 0.268 | 0.287 | 0.206 |  |  |  |  | 
20 | CAL-12T | 0.802 | 0.634 | 0.643 | 0.522 | 0.417 | 1.01 | 0.924 | 0.94 | 0.997 |  |  |  |  |  | 0.608 | 0.578 | 0.478 | 0.362 | 0.551
